Patent publication US10941435B2, “Methods and compositions for detecting or measuring caspases or apoptosis” (priority 2016, dated 2021)

Columns and labels:
BPAEC cells = experiment: Dye toxicity experiment, 48 hour incubation, imaging; conditions: 5 μM dye 48 hours, then 1 μM staurosporine overnight
Procedure: In another experiment to look at dye toxicity. BPAEC cells were incubated overnight in growth media (DMEM+10% FBS). […] After the 48 hour incubation, DMSO (control) or 1 μM staurosporine (final concentration) was added to a subset of the dye-treated cells and incubated overnight at 37° C.

Jurkat cells [1] = experiment: Flow cytometry of Jurkat cells +/- 0.5 μM staurosporine, with SYTOX Dead Cell Stain; format: cell-based; conditions: Jurkat cells +/- 0.5 μM staurosporine 3.5 hours, 1 μM dye 30 min, FIG. 7A/7B
Procedure: In yet another experiment, Jurkat cells were resuspended at 1×10^6 cells/ml in RPMI medium+10% FBS and aliquoted into 0.2 ml samples. The cells were treated with 0.5 μM Staurosporine (+STR) or without (−STR) for 3.5 hours at 37° C. […] 1 μl SYTOX™ Dead Cell Stain (Thermo Fisher Scientific, Waltham. Mass.) was added to the cells and incubated for at least 15 min. Cells were analyzed on an ATTUNE™ NXT flow cytometer as described above and were analyzed without washing.

HeLa cells [2] = experiment: Fluorescence microscopy and HCS staurosporine dose-response; format: cell-based; conditions: 5 hours; for recognition of apoptotic cells, imaging: 5 μM Compound 1 or 9 or 4 μM CELLEVENT Green 3/7, 10 μM to 0 μM staurosporine, FIG. 9A-9C; for dose-response curve of dye fluorescence to staurosporine: 5 μM dye, 10 μM to 0 μM staurosporine, CX5 HCS, FIG. 9D
Procedure: The dye/staurosporine stock solution was diluted 1:10 onto HeLa cells in complete media for a final concentration starting at 5 μM Compound 1 or Compound 9, or 4 μM CELLEVENT Green 3/7 and 10 μM staurosporine and ending at 0 μM staurosporine. After a 5 hour incubation at 37° C., live cells were imaged using white light, DAPI and FITC filters. The cells were then fixed and stained with HCS […]™ Deep Red stain (Thermo Fisher Scientific, Waltham, Mass.) and quantified on a […]™ CX5 High Content Screening (HCS) Platform (Thermo Fisher Scientific, Waltham, Mass.).

Jurkat cells [3] = experiment: Flow cytometric detection of caspase activity and apoptosis, staurosporine dilution series; format: cell-based
Procedure: Jurkat cells in log phase were resuspended in complete medium (RPMI-1640, supplemented with 10% Fetal Bovine Serum, 2 mM L-glutamine & 55 U/mL) and adjusted to a concentration of 2×10^6 cells per milliliter. 100 μl of cells were aliquoted in each well of a 96-well, V-bottom microplate so that 8 dilutions in triplicate were tested for each substrate.
Drug dilutions for treating cells were created by adding 1000 μL of complete medium containing 2 μM Staurosporine, 1:2 dilutions of this were added to 500 μL of complete medium, so that a series of 8 dilutions of Staurosporine were created.
100 μL of the media/Staurosporine mixtures were added to each well so that 3 wells of cells contained the highest dose, and then repeated for the next set of 3 wells.
Cells were incubated at 37° C., 5% CO2 in a standard cell culture incubator for 4 hours.
After the 4 hour incubation, each well had 1 μL of caspase substrate added so that the final concentration of the substrate was 2 μM of substrate in 200 μL of media. […]
At the end of the incubation, cells were analyzed using an ATTUNE® NXT Acoustic Focusing Cytometer (Thermo Fisher Scientific, Waltham. Mass.) using the 488 nm excitation and 530/30 nm emission filters to detect CELLEVENT™ Green, or the 405 nm excitation laser and the 440/50 nm emission filters to detect Compound 1. […]

HeLa cells [4] = experiment: Fluorescence microscopy detection of caspase activity and apoptosis, nuclear intensity and Z'; format: cell-based; conditions: 1 μM versus 1 nM staurosporine, 18 hour incubation, HCSStudio
Procedure: HeLa cells at a density of 7500 cells/well were incubated overnight in growth media (MEM+10% FBS. L-glutamine and Pen-Strep). Half of the plate was treated with 1 μM Staurosporine (FIG. 8B), while the other half was treated with 1 nM Staurosporine (FIG. 8A). After an 18 hour incubation (37° C., 5% CO2), all cells were incubated with SYT®82 (FIGS. 8A and 8B, left panels) and Compound 1 (FIGS. 8A and 8B, center panels). The average intensity of Compound 1 in the cellular nuclear region was calculated using HCSStudio (Compartmental Analysis Bioapplication), and a Z′ was determined (Z′=0.63).

Jurkat cells [5] = experiment: Flow cytometry of Jurkat cells treated with 1 μM staurosporine for 1 hour, then Compound 1; format: cell-based; conditions: for positive population, density plots: not shown
Procedure: In another experiment, Jurkat cells treated with 1 μM Staurosporine for 1 hour (FIG. 5A) or untreated control cells (FIG. 5B) were then treated with Compound 1. Cells were then analyzed on an ATTUNE® NXT flow cytometer. The cells were oriented on a SSC/FSC plot to include both low and high side scatter cells, but to exclude debris and gated to exclude doublets (not shown).

SMILES: CC(=O)N[C@@H](CC(=O)O)C(=O)N[C@@H](CCC(=O)O)C(=O)N[C@H](C(=O)N[C@@H](CC(=O)O)C(=O)NCCCCCN(C)c1ccc(-c2nc3ccc(-c4nc5ccc(N6CCN(C)CC6)cc5[nH]4)cc3[nH]2)cc1)C(C)C [Compound 9]
- detection of staurosporine-induced apoptotic cells after long incubation with dye (BPAEC cells): able to detect the staurosporine-induced apoptotic cells
- distinction of non-apoptotic from apoptotic cell populations (Jurkat cells [1]): distinguished non-apoptotic from apoptotic cell populations
- recognition of apoptotic cells, imaging (HeLa cells [2]): recognize apoptotic cells
- dose-response curve of dye fluorescence to staurosporine (HeLa cells [2]): good induction of apoptosis

SMILES: CC(=O)N[C@@H](CC(=O)O)C(=O)N[C@@H](CCC(=O)O)C(=O)N[C@H](C(=O)N[C@@H](CC(=O)O)C(=O)NCCN(C)c1ccc(-c2nc3ccc(-c4nc5ccc(N6CCN(C)CC6)cc5[nH]4)cc3[nH]2)cc1)C(C)C [Compound 1]
- detection of staurosporine-induced apoptotic cells after long incubation with dye (BPAEC cells): able to detect the staurosporine-induced apoptotic cells
- positive cells (percent positive of intact single cells) (Jurkat cells [3]; 1 μM staurosporine 4 hours, 2 μM substrate 30 minutes, FIG. 4A/4B): 84.9%
- detection of apoptosis over the entire staurosporine concentration range, CELLEVENT Green 3/7 versus Compound 1 (Jurkat cells [3]; 8 staurosporine dilutions in triplicate, 2 μM substrate, FIG. 3): essentially no difference
- Z' from average intensity of Compound 1 in the cellular nuclear region (HeLa cells [4]): 0.63
- Compound 1 positive cells, histograms (Jurkat cells [5]; Jurkat cells treated with 1 μM staurosporine for 1 hour, FIG. 5A): 3.49%
- positive population, density plots (Jurkat cells [5]; Jurkat cells treated with 1 μM staurosporine for 1 hour): 3.55%
- Compound 1 positive cells, histograms (Jurkat cells [5]; untreated control Jurkat cells (no staurosporine) stained with Compound 1, FIG. 5B): 1.30%
- positive population, density plots (Jurkat cells [5]; untreated control Jurkat cells (no staurosporine) stained with Compound 1): 1.32%
- recognition of apoptotic cells, imaging (HeLa cells [2]): recognize apoptotic cells
- dose-response curve of dye fluorescence to staurosporine (HeLa cells [2]): good induction of apoptosis
